Assays:
[1] = system: S. proteamaculans; test: Treatment Toxicity (ATP luminescence of cell free supernatant, BacTiterGlo), biofilm; type: cell-based, Serratia proteamaculans; conditions: for Treatment Toxicity % Ctr: Biofilm Lifestyle
Description: These enzyme combinations were tested for bacterial cell release from enzyme-treated biofilms. Post-enzyme exposure sample overlying solutions were collected and centrifuged to collect bacterial cells released by the enzyme treatment. The supernatants were removed, and the cell pellet resuspended in PBS and ATP luminescence was determined and compared to non-enzyme treated controls. Preferred enzyme pairs were expected to release more cells than untreated controls. Additionally, because maintaining extracted microbe viability was important, the ATP luminescence of the post-centrifugation cell free supernatants were also determined and compared to untreated controls. ATP is normally sequestered inside of cells so the presence of substantially more ATP in the cell free supernatant of enzyme treated biofilms indicates the enzyme treatment may have had toxic effects on the treated bacteria.
(§1) Treatment Toxicity: To measure cell toxicity the ATP luminescence of the post-centrifugation cell free supernatants were also determined using the BacTiterGlo Microbial Cell Viability Assay (Promega) and compared to untreated controls to give a percent control value shown. Values over 100% are viewed negatively as potential toxic effects of an enzyme treatment.
(§2) With both growth lifestyles a clear dose response curve is evident.

[2] = system: S. proteamaculans; test: Treatment Toxicity Assay (ATP luminescence), planktonic lifestyle; type: cell-based, Serratia proteamaculans
Description: as §1, §2

[3] = system: S. proteamaculans; test: Sanitizing agent treatment, single species biofilm controls in multi-species biofilm testing; type: cell-based, Serratia proteamaculans; conditions: 100 ug/ml BZAC
Description: Multi-species biofilms were screened by treatment with a sanitizing agent to identify species combinations that show heightened resistance. The multi-species biofilm with the most resistance to the sanitizer was used to screen three (3) enzyme combinations for anti-biofilm and bacterial release testing of the six (6) top performing two (2) enzyme combinations tested earlier. Non-nuclease enzymes were tested at two (2) different concentrations. Each three-enzyme combination was also compared to each of the two-enzyme combination core pair to try to identify synergy of the three-enzyme combination over the two-enzyme combination.
as §2

[4] = system: E. coli; test: Crystal Violet assay, two-enzyme treatment of mono-species biofilm; type: cell-based, Escherechia coli O157:H7; conditions: enzyme combined w/nuclease; Crystal Violet assay vs untreated control
Description: (§3) Applicant's initial testing was carried out with combinations of two (2) enzymes rather than a single enzyme with a nuclease present in all enzyme combinations. DNase I, a specific commonly utilized DNA nuclease, was selected as a universal enzyme. Both DNase I and other DNA nucleases were compared and formulated to have equivalent activity and then used interchangeably in the research. Nuclease was tested against all seven (7) species at three (3) concentrations and then the most overall effective concentration was used in two (2) enzyme testing. Initial two (2) enzyme testing utilized traditional mono-species biofilms of the 7 species in Table 1. The nuclease was also always tested alone in all experiments allowing some determination of its contribution to the resulting antibiofilm activity. Non-nuclease enzymes were tested at 3 concentrations while the nuclease concentration was held constant. Anti-biofilm activity was measured using the Crystal Violet assay, an easy and ubiquitous assay used for measuring changes in biofilm magnitude in the biofilm research industry.
(§4) The results of the initial two enzyme combination testing using the Crystal Violet assay is given in Table 3 and are given as a percent of the untreated control Crystal Violet signal.

[5] = system: S. enterica; test: as above; type: cell-based, Salmonella enterica; conditions: enzyme combined w/nuclease; Crystal Violet assay vs untreated control
Description: as §3, §4

[6] = system: L. monocytogenes; test: as above; type: cell-based, Listeria monocytogenes; conditions: enzyme combined w/nuclease; Crystal Violet assay vs untreated control
Description: as §3, §4

[7] = system: S. proteamaculans biofilms; test: Crystal Violet assay, enzyme treatment of single species biofilm; type: cell-based, Serratia proteamaculans; conditions: enzyme combined w/nuclease; Crystal Violet assay vs untreated control
Description: as §3
Therefore, three-enzyme combinations were also tested against single species biofilms of this species.
as §4

[8] = system: A. JohnsonII; test: Crystal Violet assay, two-enzyme treatment of mono-species biofilm; type: cell-based, Acinetobacter johnsonii; conditions: enzyme combined w/nuclease; Crystal Violet assay vs untreated control
Description: as §3, §4

[9] = system: L. plantarum; test: as above; type: cell-based, Lactobacillus plantarum; conditions: enzyme combined w/nuclease; Crystal Violet assay vs untreated control
Description: as §3, §4

[10] = system: 7-species; test: Crystal Violet assay, average over the 7 mono-species biofilms; type: cell-based; conditions: enzyme combined w/nuclease; average over species tested
Description: as §3, §4

Substance | Treatment Toxicity % Ctr ([1]; 1 μg/ml BZAC) [% Ctr] | Treatment Toxicity % Ctr ([1]; 10 μg/ml BZAC) [% Ctr] | Treatment Toxicity % Ctr ([1]; 100 μg/ml BZAC) [% Ctr] | cell-free ATP luminescence relative to untreated control biofilms ([1]; functionally active concentrations, a representative species) | Treatment Toxicity % Ctr ([2]; 1 μg/ml BZAC) [% Ctr] | Treatment Toxicity % Ctr ([2]; 10 μg/ml BZAC) [% Ctr] | Treatment Toxicity % Ctr ([2]; 100 μg/ml BZAC) [% Ctr] | biofilm reduction by sanitizer treatment [3] | Biofilm Reduction Due to Enzyme Cocktail Treatment, E. coli [4] [%] | Biofilm Reduction Due to Enzyme Cocktail Treatment, S. enterica [5] [%] | Biofilm Reduction Due to Enzyme Cocktail Treatment, L. monocytogenes [6] [%] | Biofilm Reduction Due to Enzyme Cocktail Treatment, S. proteamaculens [7] [%] | Biofilm Reduction Due to Enzyme Cocktail Treatment, A. JohnsonII [8] [%^] | Biofilm Reduction Due to Enzyme Cocktail Treatment, L. plantarum [9] [%] | Biofilm Reduction Due to Enzyme Cocktail Treatment, 7-species average [10] [%]
Benzalkonium chloride [BZAC] | 1250.5 | 150.8 | 793.3 | over twelve-fold higher | 859.3 | 284.9 | 724.9 | consistently show biofilm reduction |  |  |  |  |  |  | 
Cellulase |  |  |  |  |  |  |  |  | 0 | 10 | 0 | 0 | 22.4 | 0 | 5

From US20260009065A1, “COMPOSITIONS FOR EXPOSING FILM-FORMING MICROBES AND METHODS FOR USE OF THE COMPOSITIONS” (Guild Associates Inc., priority 2022, published 2026)
